Experimental findings from ChEMBL document CHEMBL1201862, “PubChem BioAssay data set” (2004) are described below.

The structures appear in SMILES notation.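 Growth conditions: 96-well plates. Treatment: test compound, 48 hours, 5 concentrations. Analysis: linear interpolation between bracketing concentrations; unreached endpoints set to highest concentration. At the GI50, growth is halved.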 Calls of active or inactive are those of the source. Rule as the data show it: active = GI50 up to about 1.1 µM and inactive = higher.

Among the test systems are 786-0; A549; ACHN; EKVX; HT-29; K562; M14; MDA-MB-435; NCI-H226; NCI-H460; NCI-H522; NCI/ADR-RES; OVCAR-3; OVCAR-5; SF-268; SNB-19; SNB-75; U-251; UACC-62.
What all share (assay): NCI anticancer screen, dose series, 48 h

Consider `O=C(O)C(Cc1ccccc1-c1ccccc1)C(=O)O`, for which the GI50 in the test on 786-0, with A549, in the test with ACHN, in the test with EKVX, in the test on HT-29 and in the test with K562 was > 100 µM (inactive) each time. Besides, the GI50 in the test on M14, with MDA-MB-435, with NCI-H226, in the test on NCI-H460, with NCI-H522 and with NCI/ADR-RES was > 100 µM (inactive) in each case. Moreover, the GI50 in the test with OVCAR-3 is 97.1 µM (inactive); in the test on OVCAR-5, > 100 µM (inactive); with SF-268, > 100 µM (inactive); in the test on SNB-19, > 100 µM (inactive); in the test on SNB-75 it was > 100 µM (inactive); in the test with U-251, > 100 µM (inactive). Besides, the GI50 with UACC-62 was > 100 µM (inactive).
Turning to `O=C1C=CC2(O[C@H](c3ccccc3)[C@@H](c3ccccc3)O2)[C@H](Sc2ccccc2O)C1`, the GI50 with 786-0 is 0.15 µM (active); with A549 it was 2.73 µM (inactive); with ACHN it was 0.351 µM (active); with EKVX, 1.43 µM (inactive); in the test with HT-29 it was 0.398 µM (active); in the test on K562, 0.405 µM (active). For the same compound, the GI50 in the test with M14 is 0.233 µM (active); in the test on MDA-MB-435, 0.309 µM (active); in the test on NCI-H226 it was 2.72 µM (inactive); in the test with NCI-H460 it was 2.13 µM (inactive); with NCI-H522 it was 0.0532 µM (active); with NCI/ADR-RES, 0.414 µM (active). For the same compound, the GI50 with OVCAR-3 was 0.418 µM (active); with OVCAR-5, 2.35 µM (inactive); with SF-268, 0.29 µM (active); in the test on SNB-19 it was 1.72 µM (inactive); in the test with SNB-75, 3.28 µM (inactive); in the test on U-251, 0.498 µM (active). In addition, the GI50 in the test with UACC-62 is 0.841 µM (active).
On to `COC(=O)C(CCSC)NC(=O)Cc1ccc(C(=O)c2ccccc2)cc1` (configuration not stated), for which the GI50 is > 100 µM (inactive) in the test on 786-0; 38.4 µM (inactive) in the test with A549; > 100 µM (inactive) in the test with ACHN; 39.2 µM (inactive) in the test with EKVX; 25.8 µM (inactive) in the test with HT-29; 37.8 µM (inactive) with K562. Moreover, the GI50 in the test on M14 was 35.5 µM (inactive); with MDA-MB-435 it was 29.1 µM (inactive); in the test on NCI-H226 it was 78.5 µM (inactive); with NCI-H460 it was 34.7 µM (inactive); in the test on NCI-H522 it was 57.8 µM (inactive); in the test with NCI/ADR-RES it was 26.7 µM (inactive). The GI50 was 67.6 µM (inactive) in the test with OVCAR-3; > 100 µM (inactive) in the test with OVCAR-5; > 100 µM (inactive) in the test on SF-268; 82.6 µM (inactive) in the test with SNB-19; 40.6 µM (inactive) in the test with SNB-75; 34.6 µM (inactive) in the test on U-251. Further, the GI50 in the test with UACC-62 is 51.2 µM (inactive).
For the compound `COc1ccc2nc3ccc(OC)cc3c([S+]([O-])Cc3ccccc3)c2c1` (configuration not stated), the GI50 with 786-0 is 2.21 µM (inactive); in the test on A549 it was 19.1 µM (inactive); with ACHN, 4.03 µM (inactive); with EKVX, 16.3 µM (inactive); with HT-29 it was 3.05 µM (inactive); in the test on K562, 8.51 µM (inactive). In addition, the GI50 was 14.4 µM (inactive) with M14; 12.8 µM (inactive) in the test with MDA-MB-435; 19.4 µM (inactive) with NCI-H226; 25.5 µM (inactive) with NCI-H460; 1.65 µM (inactive) in the test with NCI-H522; 20.3 µM (inactive) with NCI/ADR-RES. In addition, the GI50 in the test with OVCAR-3 was 13.1 µM (inactive); in the test on OVCAR-5, 15.7 µM (inactive); with SF-268, 16.9 µM (inactive); in the test with SNB-19, 18 µM (inactive); in the test on SNB-75 it was 15.5 µM (inactive); in the test with U-251 it was 20.5 µM (inactive). For the same compound, the GI50 in the test on UACC-62 is 14.8 µM (inactive).
For the compound `CCCCCCCCCCCC(=O)NCc1ccc(OC(=O)CCCCCCCCCCC)c(OC)c1`, the GI50 was > 100 µM (inactive) in the test with 786-0; > 100 µM (inactive) with A549; > 100 µM (inactive) in the test with ACHN; > 100 µM (inactive) in the test on EKVX; 37.8 µM (inactive) with HT-29; > 83 µM (inactive) with K562. The GI50 in the test with M14 is 32.7 µM (inactive); in the test with MDA-MB-435, > 75.2 µM (inactive); with NCI-H226, > 100 µM (inactive); with NCI-H460, > 100 µM (inactive); in the test on NCI-H522, 2.63 µM (inactive); in the test on NCI/ADR-RES, > 100 µM (inactive). The GI50 is 31.9 µM (inactive) in the test with OVCAR-3; > 100 µM (inactive) with OVCAR-5; > 54.1 µM (inactive) in the test on SF-268; > 100 µM (inactive) in the test with SNB-19; > 100 µM (inactive) in the test with SNB-75; > 100 µM (inactive) in the test with U-251. Besides, in the test with UACC-62, the GI50 was > 96.4 µM (inactive).
In the case of `CN(C)c1ccc(/C=C(\NC(=O)c2ccccc2)C(=O)NC(Cc2c[nH]c3ccccc23)C(=O)O)cc1` (configuration not stated), the GI50 with 786-0, with A549, with ACHN, in the test with EKVX, in the test on HT-29 and in the test on K562 was > 100 µM (inactive) in each case. Moreover, the GI50 with M14 is > 100 µM (inactive); in the test with MDA-MB-435, > 100 µM (inactive); in the test on NCI-H226, > 100 µM (inactive); in the test on NCI-H460, > 100 µM (inactive); in the test with NCI-H522 it was 47.6 µM (inactive); with NCI/ADR-RES, > 100 µM (inactive). The GI50 is > 100 µM (inactive) in the test on OVCAR-3; > 100 µM (inactive) in the test with OVCAR-5; > 100 µM (inactive) in the test on SF-268; > 100 µM (inactive) with SNB-19; 0.226 µM (active) in the test with SNB-75; > 100 µM (inactive) in the test on U-251. Besides, the GI50 with UACC-62 is > 100 µM (inactive).
Turning to `C1CCN2CC3CCCN4CCCC(C2C1)C34` (configuration not stated), the GI50 in the test with 786-0, in the test on A549, in the test on ACHN, with EKVX, with HT-29 and in the test with K562 was > 100 µM (inactive) each time. Moreover, the GI50 in the test with M14, in the test with MDA-MB-435, in the test on NCI-H226, with NCI-H460, with NCI-H522 and with NCI/ADR-RES was > 100 µM (inactive) in each case. Further, the GI50 was > 100 µM (inactive) with OVCAR-3; > 100 µM (inactive) in the test on OVCAR-5; > 100 µM (inactive) in the test with SF-268; > 100 µM (inactive) in the test with SNB-19; 50.1 µM (inactive) in the test on SNB-75; > 100 µM (inactive) in the test with U-251. In the test with UACC-62, the GI50 is > 100 µM (inactive).
For `NCCCCCCn1c(-c2ccc(Br)cc2)cs/c1=N\c1ccccc1`, the GI50 in the test with 786-0 is 10.2 µM (inactive); in the test with A549, 12.5 µM (inactive); with ACHN it was 14.6 µM (inactive); with EKVX it was 13.8 µM (inactive); in the test on HT-29, 5.9 µM (inactive); in the test on K562 it was 2.01 µM (inactive). Besides, the GI50 in the test with M14 is 1.44 µM (inactive); in the test on MDA-MB-435, 10.8 µM (inactive); in the test on NCI-H226 it was 16.9 µM (inactive); with NCI-H460 it was 13.1 µM (inactive); with NCI-H522 it was 10.5 µM (inactive); with NCI/ADR-RES it was 12.2 µM (inactive). Besides, the GI50 in the test with OVCAR-3 was 10.9 µM (inactive); in the test with OVCAR-5, 12.2 µM (inactive); in the test on SF-268, 13.9 µM (inactive); with SNB-19, 14.9 µM (inactive); with SNB-75 it was 11.9 µM (inactive); with U-251, 7.89 µM (inactive). In the test on UACC-62, the GI50 is 17.4 µM (inactive).
